Structures are written as SMILES.

Experiment [1] relates to human term placenta. As to the kind of experiment: Effect of enzyme inhibitors on prostanoid release from perifused human term placental explants (RIA). To be noted: quinacrine 10 μM; for effect on 6-keto-PGF1α release vs control / effect on PGE release vs control: EDTA 1 mM, NDGA 10 μM in perifusion medium; for effect on PGFM release vs control / effect on TxB2 release vs control: EDTA 1 mM in perifusion medium. Type of experiment: cell-based. The procedure: Radioimmunoassays were performed in a fashion similar to what has been previously described (Siler-Khodr et al., 1986, Biol. Reprod., 35:312) which is specifically incorporated herein for this purpose, with specific exception as noted below. A perifusion model (described in Examples 2 and 3) was employed to determine placental cell response. Media collected from the perifusion samples prepared from placental tissues were assayed. […] All the samples from a given perifusion (placenta) were determined in the same assay. At the beginning of the fifth hour of the perifusion, Medium 199 in the experimental chambers was changed to Medium 199 containing quinacrine (10 μM), EDTA (1 mM), NDGA (10 μM) or indomethacin (50 μg/ml). Four replicated chambers were perifused with control medium and each of the experimental media. This experimental design was repeated in three different perifusions using placental tissues from three different patients according to the procedure described in Example 3. […] Term placentas were obtained and placed on ice immediately after vaginal delivery from patients having spontaneous labor and delivery without any known obstetrical or medical complications. Tissues were obtained in accordance with a protocol approved by the Institutional Review Board. Within 30 minutes, the placental tissues were dissected of decidua, chorionic plates and large fetal vessels on ice. The placental tissues were cut into small fragments (approximately 25 pieces having a total weight of approximately 1 g), rinsed free of blood by repeated washing with ice cold normal saline until clear in color, and the tissue fragments placed in a 3-ml tissue chamber, placed in a 37° C. water bath. […] This medium is hereafter referred to as Medium 199. […] Perifusion was performed for two hours prior to initiation of sample collection. In this fashion, all tissues were thoroughly washed and equilibrated. Samples were collected hourly, beginning at the start of the third hour, into 12×75 mm glass tubes containing 0.1 ml indomethacin and 1100 μg/ml dimethyl sulfoxide [DMSO]. It took approximately one hour for the input medium to pass through the perifusion tubing and chamber and to be collected in the sample tube, thus the dead volume of the system was approximately 1 ml. Collection of the effluent of the 20 chambers was done simultaneously, using an ISCO fraction collector Retriever III adapted with a 20-tube rack and manifold. The prostanoid release for a given chamber was expressed as the increase over the fourth-hour prostanoid release for that chamber. Because there may be differences in the amounts of blood vessels and connective tissue among placental explants, the release expressed per unit weight results in high variance between chambers. […] Thus, the release of each chamber was related to its functional competence at the time of treatment rather than its mass. The mean release for replicate chambers from a given placenta for each particular prostanoid in the presence of arachidonic acid or each of the various enzyme inhibitors was calculated and then the mean data for each of the three different placentas was averaged at each time point. Thus, each placenta was weighted equally in the statistical analyses. Two-way analysis of variance of the average response for each prostanoid for each dose of arachidonic acid or each enzyme inhibitor studied, at each time point, was performed. The normalized data were tested for homogeneity using Cohrna's Q test, and no significant deviation was found. Thus, for each prostanoid and each treatment, where there was a significant main effect or interaction, Dunnett's comparison test was applied to determine the point(s) of significant difference as compared to the control. P<0.05 was considered to be statistically significant.

Experiment [2] relates to human term placenta. Nature of the experiment: Effect of arachidonic acid on prostanoid release from perifused human term placental explants. Type of experiment: cell-based. The procedure:
Radioimmunoassays were performed in a fashion similar to what has been previously described (Siler-Khodr et al., 1986, Biol. Reprod., 35:312) which is specifically incorporated herein for this purpose, with specific exception as noted below. A perifusion model (described in Examples 2 and 3) was employed to determine placental cell response. Media collected from the perifusion samples prepared from placental tissues were assayed. After an initial pilot study of the prostanoid release of each of the perifusion placental tissue media samples collected hourly, samples from hours 3, 4, 5, 6, 8 and 12 of the perifusion were chosen for assay and for data analysis. All the samples from a given perifusion (placenta) were determined in the same assay.
The effect of exogenous arachidonic acid on basal prostanoid release was studied by perifusing placental tissue from the beginning of the fifth hour of the perifusion, with Medium 199 containing arachidonic acid (0.2, 1.0 or 10 μg/ml). Arachidonic acid was dissolved in ethanol such that 0.02 ml ethanol per 100 ml of Medium 199 was needed to obtain these concentrations, and the resulting ethanol concentration was 0.02%. The control medium was also made to be 0.02% ethanol for valid comparison of the arachidonic acid parameter only. Four replicated chambers were perifused with control medium and each of the experimental arachidonic acid media. This experimental design was repeated using placental tissues from three different patients.
Briefly, term placenta were obtained and placed on ice immediately after vaginal delivery from patients having spontaneous labor and delivery without any known obstetrical or medical complications. Tissues were obtained in accordance with a protocol approved by the Institutional Review Board. Within 30 minutes, the placental tissues were dissected of decidua, chorionic plates and large fetal vessels on ice. The placental tissues were cut into small fragments (approximately 25 pieces having a total weight of approximately 1 g), rinsed free of blood by repeated washing with ice cold normal saline until clear in color, and the tissue fragments placed in a 3-ml tissue chamber, placed in a 37° C. water bath. Twenty replicate chambers were prepared and each perifused with Medium 199 containing 0.05% BSA, 100 U penicillin and 100 μg streptomycin per ml at a rate of 1 ml per hour for 12 hours. This medium is hereafter referred to as Medium 199. The influx medium was aerated with 95% air and 5% CO2 throughout the perifusion. Perifusion was performed for two hours prior to initiation of sample collection. In this fashion, all tissues were thoroughly washed and equilibrated. Samples were collected hourly, beginning at the start of the third hour, into 12×75 mm glass tubes containing 0.1 ml indomethacin and 1100 μg/ml dimethyl sulfoxide [DMSO]. It took approximately one hour for the input medium to pass through the perifusion tubing and chamber and to be collected in the sample tube, thus the dead volume of the system was approximately 1 ml. Collection of the effluent of the 20 chambers was done simultaneously, using an ISCO fraction collector Retriever III adapted with a 20-tube rack and manifold.
The prostanoid release for a given chamber was expressed as the increase over the fourth-hour prostanoid release for that chamber. Because there may be differences in the amounts of blood vessels and connective tissue among placental explants, the release expressed per unit weight results in high variance between chambers. […] Thus, the release of each chamber was related to its functional competence at the time of treatment rather than its mass.
The mean release for replicate chambers from a given placenta for each particular prostanoid in the presence of arachidonic acid or each of the various enzyme inhibitors was calculated and then the mean data for each of the three different placentas was averaged at each time point. […]

Setting [3] is: arachidonic acid 10 μg/ml, within three hours of exposure.

`CC(Cc1ccc(O)c(O)c1)C(C)Cc1ccc(O)c(O)c1` (stereo not drawn) [NDGA, nordihydroguaiaretic acid]: in experiment [1], the “effect on 6-keto-PGF1α release vs control” value was “significant inhibition” and the “effect on PGE release vs control” value was “inhibited”.

As for `O=C(O)CN(CCN(CC(=O)O)CC(=O)O)CC(=O)O` [EDTA, ethylene diamino tetraacetic acid], in experiment [1], the “effect on PGFM release vs control” value is on record as “did not reduce”, the “effect on TxB2 release vs control” value is “did not reduce”, the “effect on 6-keto-PGF1α release vs control” value is reported as “significant inhibition” and the “effect on PGE release vs control” value is given as “did not reduce”.

For `CCCCC/C=C\C/C=C\C/C=C\C/C=C\CCCC(=O)O` [arachidonic acid], the “effect on prostanoid production” value in experiment [2] (arachidonic acid 0.2 μg/ml) is “no significant effect”. The “effect on prostanoid production” value in experiment [2] (arachidonic acid 1.0 μg/ml) is “no significant effect”. Besides, in experiment [2] (setting [3]), the “effect on PGE release” value was “significant increase” and the “effect on PGF release” value is reported as “significant increase”. Further, in experiment [2] (arachidonic acid 0.2-10 μg/ml), the “effect on 6-keto-PGF1α” value is listed as “no significant effect”, the “effect on PGFM” value is reported as “no significant effect” and the “effect on TxB2” value is “no significant effect”.

Turning to `CCN(CC)CCCC(C)Nc1c2ccc(Cl)cc2nc2ccc(OC)cc12` (stereo not drawn) [quinacrine], in experiment [1], the “effect on PGFM release vs control” value is listed as “no significant effect”, the “effect on TxB2 release vs control” value is “no significant effect”, the “effect on 6-keto-PGF1α release vs control” value is recorded as “no significant effect” and the “effect on PGE release vs control” value is “no significant effect”. Further, the “effect on PGF release vs control” value in experiment [1] (first hour of exposure) is recorded as “significant inhibition”.
